Earlier results in patent US6642219B1, “Progestogen-antiprogestogen regimens” (Akzo Nobel N.V., priority 1997, dated 2003).

Tests used:
[1] = in vivo
progesterone receptor = biological target: T1, progesterone receptor (Homo sapiens, UniProt P06401)
T1 sequence (P06401 1-933): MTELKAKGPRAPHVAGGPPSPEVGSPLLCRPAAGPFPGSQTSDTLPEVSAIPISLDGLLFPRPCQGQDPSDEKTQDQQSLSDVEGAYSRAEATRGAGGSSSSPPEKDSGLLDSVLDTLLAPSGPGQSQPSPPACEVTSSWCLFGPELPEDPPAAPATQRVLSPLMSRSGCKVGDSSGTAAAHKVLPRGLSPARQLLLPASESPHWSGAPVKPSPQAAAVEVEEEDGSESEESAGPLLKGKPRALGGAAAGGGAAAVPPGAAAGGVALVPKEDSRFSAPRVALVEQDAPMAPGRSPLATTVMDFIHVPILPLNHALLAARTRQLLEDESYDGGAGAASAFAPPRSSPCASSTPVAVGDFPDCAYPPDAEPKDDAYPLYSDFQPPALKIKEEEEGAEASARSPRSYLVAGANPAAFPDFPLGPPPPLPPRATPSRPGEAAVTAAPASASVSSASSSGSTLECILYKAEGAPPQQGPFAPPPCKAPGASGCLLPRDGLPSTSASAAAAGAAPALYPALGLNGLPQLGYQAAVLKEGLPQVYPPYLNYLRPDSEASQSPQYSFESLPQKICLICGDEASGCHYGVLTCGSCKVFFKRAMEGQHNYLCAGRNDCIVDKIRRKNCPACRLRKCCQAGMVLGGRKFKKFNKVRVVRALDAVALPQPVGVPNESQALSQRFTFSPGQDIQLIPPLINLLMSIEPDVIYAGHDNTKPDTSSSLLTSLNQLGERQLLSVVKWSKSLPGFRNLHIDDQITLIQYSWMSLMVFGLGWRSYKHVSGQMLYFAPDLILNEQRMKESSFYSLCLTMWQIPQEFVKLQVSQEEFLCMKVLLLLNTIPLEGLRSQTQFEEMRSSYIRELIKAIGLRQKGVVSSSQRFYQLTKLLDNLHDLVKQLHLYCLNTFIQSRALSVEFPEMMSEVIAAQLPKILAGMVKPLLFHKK

[2] = based on practically applied doses

For `C#C[C@]1(O)CC[C@H]2[C@@H]3CCC4=CC(=O)CC[C@@H]4[C@H]3C(=C)C[C@@]21CC` [3-keto-desogestrel], the “progestogenic activity, compared among each other” value (progestogenic activity; [2]) is given as “relatively equipotent”.
For `CC#C[C@]1(O)CC[C@H]2[C@@H]3CCC4=CC(=O)CCC4=C3[C@@H](c3ccc(N(C)C)cc3)C[C@@]21C` [RU 486, (11β,17β)-11-[4-(demethylamino)-phenyl]-17-hydroxy-17-(1-propynyl)esta-4,9diene-3-one], the half-life [1] is given as ~20 h.
For `CC(=O)c1ccc(C2CC3(C)C(CCC34OCC=C4C)C3CCC4=CC(=O)CCC4=C23)cc1` (stereo not drawn) [Org 33628, (11β,17α)-11-(4-acetylphenyl)-17,23-epoxy-19,24-dinorchola-4,9,20-trien-3-one], the “anti-progestogen potency compared with RU 486” value (progesterone receptor) is given as “somewhat more potent” and the half-life [1] is given as “approximately 15 hours”.
For `C#C[C@]1(O)CC[C@H]2[C@@H]3CCC4=CCCC[C@@H]4[C@H]3C(=C)C[C@@]21CC` [desogestrel, 13-ethyl-11-methylene-18,19-di-nor-17α-pregn-4en-20-yn-17-ol], the “progestogenic activity, compared among each other” value (progestogenic activity; [2]) is listed as “relatively equipotent”.
For `C#CC1(O)CC[C@H]2[C@@H]3CCC4=CC(=O)CC[C@@H]4[C@H]3CC[C@@]21CC` (stereo partly drawn) [Norgestrel], the “progestogenic potency relative to levonorgestrel” value (progestogenic activity) is given as “about one-half”.
For `C[C@@H]1C[C@@H]2C(=C3CCC(=O)C=C31)[C@@H](c1ccc(N(C)C)cc1)C[C@@]1(C)[C@H]2CC[C@@]12CCCO2` [Org 31710, (6α,11β,17β)-11-(4-dimethylaminophenyl)-6-methyl-4′,5′-dihydrospiro-[estra-4,9-diene-17,2′-(3′H)-furan]-3-one], the “anti-progestogen potency compared with RU 486” value (progesterone receptor) is listed as “somewhat more potent” and the half-life [1] is listed as 50 h.
For `C#C[C@]1(O)C=C[C@H]2[C@@H]3CCC4=CC(=O)CC[C@@H]4[C@H]3CC[C@@]21CC` [Gestodene], the “progestogenic potency relative to levonorgestrel, desogestrel and 3-keto-desogestrel” value (progestogenic activity; [2]) is listed as “approximately 1.5 times”.
